Results taken from ChEMBL document CHEMBL5036370, “Indole-Containing Pyrazino[2,1-b]quinazoline-3,6-diones Active against Plasmodium and Trypanosomatids” (ACS Med Chem Lett, 2022).
Active and inactive are the calls of the source. No cut-off for these calls is given here.

Columns and labels:
[1] = tested on: Trypanosoma brucei; experiment: Antitrypanosomal activity against bloodstream form of Trypanosoma brucei Lister 427 assessed as parasite growth inhibition incubated for 72 hrs by resazurin staining based assay; format: functional, organism-based; settings: Lister 427, 72 h
[2] = Selectivity index, ratio of CC50 for cytotoxicity against human THP-1 cells to IC50 for antitrypanosomal activity against bloodstream form of Trypanosoma brucei Lister 427; format: toxicity, cell-based; settings: read-out: Ratio CC50/IC50
[3] = tested on: Leishmania infantum; experiment: Antileishmanial activity against axenic amastigote stage of Leishmania infantum infected in THP-1 cells assessed as reduction in parasite growth at 10 uM incubated for 72 hrs by luminescence analysis; format: functional, organism-based
[4] = tested on: V79; experiment: (§1) Cytotoxicity against Chinese hamster V79 cells measured after 24 hrs by MTT assay; format: cell-based, Cricetulus griseus; settings: v79, 24 h
[5] = tested on: Plasmodium falciparum; experiment: Antimalarial activity against CQ-sensitive Plasmodium falciparum 3D7 assessed as parasite growth inhibition incubated for 48 hrs by SYBR Green I dye based fluorescence assay; format: functional, organism-based; settings: 3D7, 48 h
[6] = Cytotoxicity against human THP-1 cells assessed as reduction in cell viability measured after 72 hrs by MTT assay; format: cell-based
[7] = tested on: Trypanosoma brucei; experiment: Antitrypanosomal activity against bloodstream form of Trypanosoma brucei Lister 427 assessed as parasite growth inhibition at 10 uM incubated for 72 hrs by resazurin staining based assay; format: functional, organism-based
[8] = Hemolytic activity against human erythrocytes at <=10 uM incubated for 1 hr by microplate reader assay; format: ADME, tissue-based; settings: erythrocyte
[9] = Selectivity index, ratio of LD50 for cytotoxicity against Chinese hamster V79 cells to IC50 for antimalarial activity against CQ-sensitive Plasmodium falciparum 3D7; format: toxicity, cell-based; settings: V79 cells versus Plasmodium falciparum 3D7, read-out: Ratio LD50/IC50
[10] = tested on: Hemozoin; experiment: Inhibition of Beta-hematin formation at 12 to 48 uM after 24 hrs by microplate reader assay; settings: dose 12-48 µM
[11] = as §1; format: cell-based, Cricetulus griseus; settings: V79 cells, read-out: LD50
[12] = Hemolytic activity against human erythrocytes at 0.04 to 10 uM incubated for 1 hr by microplate reader assay; format: ADME, tissue-based, Erythrocyte; settings: dose 0.04-10 µM, read-out: Activity
[13] = tested on: Leishmania infantum; experiment: Antileishmanial activity against axenic amastigote stage of Leishmania infantum infected in THP-1 cells assessed as reduction in parasite growth incubated for 72 hrs by luminescence analysis; format: functional, organism-based; settings: THP-1, 72 h
[14] = Selectivity index, ratio of CC50 for cytotoxicity against human THP-1 cells to IC50 for antileishmanial activity against axenic amastigote stage of Leishmania infantum infected in THP-1 cells; format: toxicity, cell-based; settings: read-out: Ratio CC50/IC50

SMILES | IC50 [1] [µM] | selectivity ratio [2] | inhibition [3] | LD50 [4] | IC50 [5] [µM] | CC50 at 72 h [6] [µM] | inhibition [7] | other results
CC[C@H](C)[C@@H]1NC(=O)[C@@H](Cc2c[nH]c3ccccc23)n2c1nc1cc(Cl)c(Cl)cc1c2=O | 5.8 | 8.6 | inactive | Not Active | 1.51 | 50 |  | 
COc1ccc2nc3n(c(=O)c2c1)[C@H](Cc1c[nH]c2ccccc12)C(=O)N[C@H]3CC(C)C |  |  | inactive | Not Active | > 10 | > 100 | inactive | 
CC(C)[C@@H]1NC(=O)[C@H](Cc2c[nH]c3ccccc23)n2c1nc1ccccc1c2=O | 4.6 | > 21.7 | inactive | Not Active | > 10 | > 100 |  | 
CC(C)[C@@H]1NC(=O)[C@@H](Cc2c[nH]c3ccccc23)n2c1nc1ccccc1c2=O |  |  | inactive |  | 0.1 | > 100 | inactive | Activity [8]: Non-Toxic; selectivity ratio [9]: 19; inhibition [10]: inactive; CC50 at 24 h [11]: 1.91 µM; hemolysis at 1 h, up to 10 µM [12]: < 6%
CC(C)C[C@@H]1NC(=O)[C@@H](Cc2c[nH]c3ccccc23)n2c1nc1ccc(Cl)cc1c2=O |  |  |  | Not Active | > 10 |  |  | 
CC(C)C[C@@H]1NC(=O)[C@@H](Cc2c[nH]c3ccccc23)n2c1nc1ccccc1c2=O |  |  | inactive |  | 0.05 | > 100 | inactive | Activity [8]: Non-Toxic; selectivity ratio [9]: 34; inhibition [10]: inactive; CC50 at 24 h [11]: 1.78 µM; hemolysis at 1 h, up to 10 µM [12]: < 6%
CC(C)C[C@@H]1NC(=O)[C@@H](Cc2c[nH]c3ccccc23)n2c1nc1ccc(O)cc1c2=O | 8.6 | > 11.6 | inactive | Not Active | 0.73 | > 100 |  | 
O=C1N[C@@H](Cc2ccc(OCc3ccccc3)cc2)c2nc3cc(Cl)c(Cl)cc3c(=O)n2[C@@H]1Cc1c[nH]c2ccccc12 | 3.9 | > 25.6 | inactive | Not Active | 4 | > 100 |  | 
CSCC[C@@H]1NC(=O)[C@@H](Cc2c[nH]c3ccccc23)n2c1nc1ccccc1c2=O |  |  |  | Not Active | > 10 |  |  | 
O=C1N[C@H](Cc2ccc(OCc3ccccc3)cc2)c2nc3ccccc3c(=O)n2[C@H]1Cc1c[nH]c2ccccc12 | 1.6 | > 62.5 | inactive | Not Active | > 10 | > 100 |  | 
O=C1N[C@H](Cc2ccc(O)cc2)c2nc3ccccc3c(=O)n2[C@H]1Cc1c[nH]c2ccccc12 |  |  | inactive | Not Active | 4.18 | > 100 | inactive | 
CC(C)[C@H]1NC(=O)[C@H](Cc2c[nH]c3ccccc23)n2c1nc1ccccc1c2=O |  |  | inactive | Not Active | > 10 | > 100 | inactive | 
CCCCCCCCCCCCCCCCOP(=O)([O-])OCC[N+](C)(C)C [MILTEFOSINE] |  |  |  |  |  | 28.8 | inactive | IC50 [13]: 1 µM; selectivity ratio [14]: 28.8
O=C1N[C@@H](Cc2c[nH]c3ccccc23)c2nc3ccccc3c(=O)n2[C@@H]1Cc1c[nH]c2ccccc12 |  |  |  | Not Active | > 10 |  |  | 
CC(C)[C@H]1NC(=O)[C@@H](Cc2c[nH]c3ccccc23)n2c1nc1ccccc1c2=O | 7.1 | > 14.1 | inactive | Not Active | 0.15 | > 100 |  | 
CC(C)C[C@@H]1NC(=O)[C@@H](Cc2c[nH]c3ccccc23)n2c1nc1ccc(I)cc1c2=O | 4.1 | 12.2 |  | Not Active | > 10 | 50 |  | IC50 [13]: 7.4 µM; selectivity ratio [14]: 6.7
CC(C)C[C@H]1NC(=O)[C@@H](Cc2c[nH]c3ccccc23)n2c1nc1ccccc1c2=O | 0.38 | 65.7 |  | Not Active | 0.47 | 25 |  | IC50 [13]: 2.6 µM; selectivity ratio [14]: 9.6
CC(C)C[C@H]1NC(=O)[C@H](Cc2c[nH]c3ccccc23)n2c1nc1ccccc1c2=O |  |  | inactive | Not Active | 2 | > 100 | inactive | 
CC[C@H](C)[C@@H]1NC(=O)[C@@H](Cc2c[nH]c3ccccc23)n2c1nc1ccc(Br)cc1c2=O | 5.3 | 9.4 |  | Not Active | > 10 | 50 |  | IC50 [13]: 7.8 µM; selectivity ratio [14]: 6.4
CC(C)C[C@@H]1NC(=O)[C@@H](Cc2c[nH]c3ccccc23)n2c1nc1cc(I)c(I)cc1c2=O |  |  |  | Not Active | > 10 |  |  | 
CCN(CC)CCCC(C)Nc1ccnc2cc(Cl)ccc12 (stereo unspecified) [CHLOROQUINE] |  |  |  |  |  |  |  | Activity [8]: Non-Toxic
CC(C)C[C@@H]1NC(=O)[C@@H](Cc2c[nH]c3ccccc23)n2c1nc1ncccc1c2=O |  |  | inactive | Not Active | 3.76 | > 100 | inactive | 
CC[C@H](C)[C@@H]1NC(=O)[C@@H](Cc2c[nH]c3ccccc23)n2c1nc1ccccc1c2=O |  |  |  | Not Active | > 10 |  |  | 
C[C@H]1NC(=O)[C@@H](Cc2c[nH]c3ccccc23)n2c1nc1ccccc1c2=O [FUMIQUINAZOLINE G] |  |  |  | Not Active | 3.68 |  |  | 
CC(C)C[C@@H]1NC(=O)[C@H](Cc2c[nH]c3ccccc23)n2c1nc1ccccc1c2=O |  |  | inactive | Not Active | > 10 | 50 | inactive | 
N=C(N)c1ccc(OCCCCCOc2ccc(C(=N)N)cc2)cc1 [PENTAMIDINE] |  |  | inactive |  |  | > 10 |  | 
CC(C)C[C@@H]1NC(=O)[C@@H](Cc2c[nH]c3ccccc23)n2c1nc1cc(-c3nnnn3C)ccc1c2=O |  |  | inactive | Not Active | 1.02 | > 50 | inactive | 
CC[C@H](C)[C@@H]1NC(=O)[C@@H](Cc2c[nH]c3ccccc23)n2c1nc1ccc(Cl)cc1c2=O |  |  |  | Not Active | > 10 |  |  | 
Cc1ccc2nc3n(c(=O)c2c1)[C@H](Cc1c[nH]c2ccccc12)C(=O)N[C@H]3CC(C)C |  |  | inactive | Not Active | > 10 | > 100 | inactive | 
CC(C)C[C@@H]1NC(=O)[C@@H](Cc2c[nH]c3ccccc23)n2c1nc1cnccc1c2=O |  |  | inactive | Not Active | 4 | > 100 | inactive | 
